How the values were obtained:
[1] = in vitro elution of rifampin and minocycline from p22-27.5 polymers with TXA in release media (Example 15); assay type: physicochemical; settings: PBS pH 7.4 without or with TXA 0.05 mg/mL or 5 mg/mL, over 25 hours
Procedure: B1=PBS pH 7.4; B2=PBS, pH 7.4+TXA (0.05 mg/mL); B3=PBS, pH 7.4+TXA (5 mg/mL).

[2] = stability of rifampin and minocycline in PBS with and without tranexamic acid (Example 14); assay type: physicochemical; settings: regardless of temperature (RT about 23° C. and 37° C.)
Procedure: The mixtures were tested both at room temperature (RT) (about 23° C.) and at 37° C.

blood [3] = experiment: in vitro time required to induce blood clotting (Example 18); assay type: biochemical; settings: 1.2 mg of TXA alone
Procedure: Tests were conducted to compare the time required for different hemostatic agents to induce blood clotting in vitro versus the time required to induce blood clotting in vitro when no hemostatic agent is administered. In particular, the time required to induce blood clotting was plotted for blood alone, a polymer in the p22-xx family (P22-27.5-TYRX), Surgicel, a polymer in the p22-xx family (P22-27.5-TYRX) with 1.6 mg of TXA, 1.2 mg of TXA alone and a polymer in the p22-xx family (P22-27.5-TYRX) with X mg of TXA.
Tests were conducted to compare the time required for different hemostatic agents to induce blood clotting in vitro versus the time required to induce blood clotting in vitro when no hemostatic agent is administered. In particular, the time required to induce blood clotting was plotted for blood alone, TYRX, Surgicel, TYRX with 1.6 mg of TXA, 1.2 mg of TXA alone and TYRX with 200 mg of TXA. In this example, TYRX refers to a Glycoprene mesh that is coated with P22-27.5 (a polymer in the P22-X family) containing Rifampin and Minocycline.

[4] = given preoperatively; cited from earlier work
blood [5] = experiment: in vitro blood clotting time with different amounts of TXA in presence of TYRX (Example 17); assay type: biochemical; settings: higher amounts of TXA (1.6 mg TXA vs 200 mg of TXA), in the presence of TYRX
Procedure: Tests were conducted to compare the time required to induce blood clotting in vitro when different amounts of hemostatic agent is administered in the presence of TYRX (degradable mesh coated with P22-27.5 containing rifampin and minocycline), as shown in FIG. 40. Clotting time was […] when higher amounts of TXA was present (1.6 mg TXA vs 200 mg of TXA), as shown below in FIG. 44.

myofibroblast formation = settings: Ajmal et al. (2003) Plast. Reconstr. Surg. 112:1455-1461; cited from earlier work

For `CO[C@H]1/C=C/O[C@@]2(C)Oc3c(C)c(O)c4c(O)c(c(/C=N/N5CCN(C)CC5)c(O)c4c3C2=O)NC(=O)/C(C)=C\C=C\[C@H](C)[C@H](O)[C@@H](C)[C@@H](O)[C@@H](C)[C@H](OC(C)=O)[C@@H]1C` [rifampin], the “elution rates, effect of TXA in the release media” value [1] was “not effected” and the “percentage area of rifampin, mixtures with vs without tranexamic acid” value [2] was “substantially the same”.
For `NC[C@H]1CC[C@H](C(=O)O)CC1` [tranexamic acid], the “time to induce blood clotting” value (blood [3]) is given as “about 19 minutes”, the “time to reach plasma concentrations” value [4] is given as 5 to 15 min and the Clotting time (blood [5]) is given as “increased”.
In the case of `O=S(=O)([O-])CCS.[Na+]` [MESNA, sodium 2-mercaptoethane sulfonate], the myofibroblast formation (myofibroblast formation) is listed as “diminish myofibroblast formation”.

From US11577010B2, “Hemostatic devices and methods of use” (priority 2017, dated 2023)
